From patent US10711230B2, “N-acyl proline derivatives as food flavoring compounds” (Givaudan S.A., priority 2012, dated 2020)

Assays:
[1] = Expert taster evaluation in beef bouillon; settings: 1 ppm in base (Maggi beef bouillon, 1 tablet in 500 ml hot water); base alone: salty, umami, powdery
Procedure: (§1) Samples were evaluated by expert tasters. Tasters were asked to describe the samples focusing on authentic taste, mouthfeel, fullness, salty-ness, salivation, umami, sweetness, juiciness, richness, long lastingness and fattiness.
Base is Maggi beef bouillon 1 tablet in 500 ml of hot water

[2] = Expert taster evaluation in a mango juice drink; settings: 1 ppm in base (water, 8% sucrose, 0.1% citric acid, 1% clear mango juice, mango flavour 0.05%); base alone: fruity mango
Procedure: as §1
Comparison in a Mango Juice Drink
Base is water, 8% sucrose, 0.1% citric acid, 1% clear mango juice, proprietary mango flavour @ 0.05%

[3] = Expert taster evaluation in lemon beverage; settings: 1 ppm in base (water, 7% sucrose, 0.15% citric acid, lemon flavor), base alone: floral, citral
Procedure: as §1
Basis water, 7% sucrose, 0.15% citric acid, proprietary lemon flavor

[4] = Expert taster evaluation in orange beverage; settings: 1 ppm in base (water, 7% sugar, 0.1% citric acid, orange flavour 0.06%); base alone: orange, fruity, slightly candy
Procedure: as §1
Base is water, 7% sugar, 0.1% citric acid, proprietary orange flavour @ 0.06%.

| SMILES | taste description in bouillon [1] | taste description in mango juice drink [2] | taste description in lemon beverage [3] | taste description in orange beverage [4] |
| --- | --- | --- | --- | --- |
| CCCCCCCCCCCCCCCC(=O)N1CCCC1C(=O)O (stereo not shown) [C16:0-pro, N-palmitoyl-Pro] | more salty, full, darker, more meat-like | overripe, orange like, long lasting after taste |  |  |
| CCCCC/C=C\C/C=C\CCCCCCCC(=O)N1CCC[C@H]1C(=O)O [C18:2-pro, N-linoleoyl-Pro] |  |  | very juicy, more citral like, very authentic | very juicy, authentic orange |
